# Measured values from patent US10709724B2, “Methods of treating mitochondrial dysfunction” (Ecole Polytechnique Federale de Lausanne (EPFL), priority 2011, dated 2020).
# Where “and” joins values, the source holds several entries; their conditions need not be identical. Equal values may be shown once. Entries after “also recorded” stand apart in the source; their conditions may differ.
# Legend:
# C. elegans [1] = test: Worm lifespan analysis; format: in vivo; conditions: for variation compared to control (%): vs N2 + water
# Protocol: Worm Lifespan Analysis Lifespan tests were performed as described in Mouchiroud et al (L. Mouchiroud et al., Pyruvate imbalance mediates metabolic reprogramming and mimics lifespan extension by dietary restriction in Caenorhabditis elegans. Aging Cell 10, 39 (2011)). Briefly, 60-100 animals were used per conditions and scored every other day. All lifespan experiments were performed at 20° C. […] Animals were exposed to compounds during the full life from eggs until death. To ensure a permanent exposure to the compound, plates were changed twice a week. All the compounds used in this study were dissolved in a water stock solution.
# C. elegans [2] = test: NAD measurement by HPLC in worms; format: in vivo; conditions: day 4 of adulthood
# Protocol: Worm Respiration Assays Oxygen consumption was measured using the Seahorse XF24 equipment (Seahorse Bioscience Inc., North Billerica, Mass.) as described in Yamamoto et al. Typically, 200 animals per conditions were recovered from NGM plates with M9 medium, washed three times in 2 mLM9 to eliminate residual bacteria, and resuspended in 500 μL M9 medium. Worms were transferred in 24-well standard Seahorse plates (#100777-004) (50 worms per well) and oxygen consumption was measured 6 times. Respiration rates were normalized to the number of worms in each individual well. NAD measurement by HPLC For NAD+ quantification, approximately 1000 worms were collected in M9 buffer, washed five times to remove residual bacteria and flash-frozen in liquid nitrogen and stored at −80° C. until analysis. Extraction was started by adding 250 μl of 1.6M perchloric acid on frozen samples, followed by extensive homogenization in a Qiagen tissuelyser, and centrifugation at 20.000 g for 15 min. The supernatant was recovered and neutralized with a 3M potassium carbonate solution. […]
# C. elegans [3] = test: Worm respiration assay (Seahorse XF24); format: in vivo; conditions: day 3 adult worms
# Protocol: Worm Respiration Assays Oxygen consumption was measured using the Seahorse XF24 equipment (Seahorse Bioscience Inc., North Billerica, Mass.) as described in Yamamoto et al. Typically, 200 animals per conditions were recovered from NGM plates with M9 medium, washed three times in 2 mLM9 to eliminate residual bacteria, and resuspended in 500 μL M9 medium. Worms were transferred in 24-well standard Seahorse plates (#100777-004) (50 worms per well) and oxygen consumption was measured 6 times. Respiration rates were normalized to the number of worms in each individual well. NAD measurement by HPLC For NAD+ quantification, approximately 1000 worms were collected in M9 buffer, washed five times to remove residual bacteria and flash-frozen in liquid nitrogen and stored at −80° C. until analysis. Extraction was started by adding 250 μl of 1.6M perchloric acid on frozen samples, followed by extensive homogenization in a Qiagen tissuelyser, and centrifugation at 20.000 g for 15 min. The supernatant was recovered and neutralized with a 3M potassium carbonate solution. After centrifugation, 100 μl of supernatant was filtered and used for NAD measurement using an HPLC system (Agilent) with a Supelco LC-18-T column (Sigma), as described in Yoshino et al. (Yoshino, K. F. Mills, M. J. Yoon, S. Imai, Nicotinamide Mononucleotide, a Key NAD(+) Intermediate, Treats the Pathophysiology of Diet- and Age-Induced Diabetes in Mice. Cell Metab 14, 528 (2011)).
# C. elegans [4] = test: Quantitative RT-PCR in worms; format: in vivo
# Protocol: mRNA and mtDNA Analysis. Total RNA was prepared using TRIzol (Invitrogen) according to the manufacturer's instructions. RNA was treated with DNase, and 2 μg of RNA was used for reverse transcription (RT). cDNA was purified on QIAquick PCR cleanup columns (Qiagen, Valencia, Calif., USA). 50× diluted cDNA was used for RT-quantitative PCR (RT-VCR) VCR) reactions (Bai et al., 2007). The RT-qPCR reactions were performed using the Light-Cycler system (Roche Applied Science) and a qPCR Supermix (Qiagen) with the primers for mice summarized in Table 1 and 4, and with the primers for worms summarized on Table 7. mtDNA quantification was performed as described (Lagouge et al., 2006) with the primers indicated in Table 2 and 5.
# C. elegans [5] = test: Confocal microscopy of mitochondria in body wall muscle (pmyo-3::mito::GFP reporter); conditions: in vivo
# Protocol: Confocal Microscopy and Image Processing Worms were immobilized with 6 mM solution of tetramisole hydrochloride (Sigma, Buchs, Switzerland) in M9 and mounted on 6% agarose pads on glass slides. Images of worms were acquired using Zeiss LSM 700 Upright confocal microscope (Carl Zeiss AG, Oberkochen, Germany) under non-saturating exposure conditions. All the snapshots were taken from the same part of C. elegans: muscles from the upper part of the worm, excluding the regions of oesophagus and vulva. For each condition multiple worms were observed and imaged. Image processing was performed with the Fiji software. One of the critical issues during the imaging process was the position of the worm, as it influences the level of background. For the uniformity of the represented images, contrast and brightness were adjusted in order, to eliminate the undesirable background signal. Neither of these manipulations was affecting the mitochondrial shape. Tracing of the mitochondrial network contour was done by the use of Gaussian blur filter followed by the application of Laplacian operator.
# C57Bl/6J mice = test: NAD+ content in mouse tissues after one week of supplemented chow; format: in vivo; conditions: 400 mg/kg/day in chow; for muscle NAD+ content: quadriceps
# Protocol: Animal Experiments. […] In other animal experiments, 8 weeks-old male C57Bl/6J mice were purchased from Charles River and powder chow (D12450B) and high fat (D12492) diets were from Research Diets Inc (New Brunswick, N.J., USA). 80 ml of water per kg of powder CD were used to make food pellets. 40 ml of water per kg of powder HFD were used to make food pellets. […] Mice were housed separately, had ad libitum access to water and food and were kept under a 12 h dark-light cycle. Mice were fed with homemade pellets from 10 weeks of age. […] All animal experiments were carried out according to local national and EU ethical guidelines. To monitor body weight, mice were weighed and the food consumption was measured each week on the same day. In case of PJ34 treatment, mice received each 12 h (at 7:00 and 19:00) 10 mg/kg PJ34 by intraperitoneal injection for 5 continuous days. In all studies animals were killed (at 14:00) either after CO2 inhalation or cervical dislocation after 6 h of fasting (starting at 8:00), and tissues were collected and processed as specified below. […] Plasma insulin and was determined in heparinized plasma samples using specific ELISA kits (Mercodia). Blood samples were collected in heparinized tubes and plasma was isolated after centrifugation. Plasma parameters were measured using a Cobas c111 (Roche Diagnostics). […] The respiratory quotient was the ratio of CO2 production over O2 consumption. During actimetry, beamline crossings were summarized each 15 minutes.
# NAD^+ NAM Determination. NAD^+ levels in cultured cells were determined using a commercial kit (Enzychrom™, BioAssays Systems, CA). […] 70 L of ice-cold 7% perchloric acid was then added and the sample was vortexed and sonicated three times, then centrifuged. Clear supernatant was removed and neutralized by additions of 3 M NaOH and 1 M phosphate buffer (pH=9), then centrifuged. Clear supernatant was injected onto HPLC C-18 column with 20 mM ammonium acetate eluent to separate NAD^+ and NAM from other cellular components, NAD^+ and NAM peaks (260 nm absorbance) were collected. Collections were lyophilized to dryness and subjected to MALDI-TOF analysis. […] Corrections were applied for isotopic abundance.
# GPR109A = target: T1, GPR109A (Homo sapiens, UniProt Q8TDS4); format: cell-based; conditions: GPR109A-expressing Chem-4 cells
# T1 construct: host or cells: Chem-4 cells (Ready-to-Assay GPR109A Nicotinic Acid Receptor Cells)
# T1 sequence (Q8TDS4 whole entry): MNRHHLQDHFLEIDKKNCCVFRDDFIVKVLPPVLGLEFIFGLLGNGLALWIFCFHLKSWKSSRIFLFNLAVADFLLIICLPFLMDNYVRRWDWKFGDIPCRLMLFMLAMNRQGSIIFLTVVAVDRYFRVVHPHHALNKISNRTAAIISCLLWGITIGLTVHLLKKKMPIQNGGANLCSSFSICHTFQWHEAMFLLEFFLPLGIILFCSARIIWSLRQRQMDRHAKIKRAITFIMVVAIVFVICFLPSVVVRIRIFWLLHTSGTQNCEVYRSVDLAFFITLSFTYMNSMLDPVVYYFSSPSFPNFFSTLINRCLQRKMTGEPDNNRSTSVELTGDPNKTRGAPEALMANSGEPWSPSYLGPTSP
# Protocol: GPR109A—Calcium Mobilization Assay. Ready-to-Assai™ GRP109A Nicotinic Acid Receptor Cells were used to measure calcium mobilization as specified by the manufacturer (Millipore). Calcium flux was determined using excitation at 340 and 380 nm in a fluorescence spectrophotometer (Victor X4, Perkin Elmer) in a 180 seconds time course, adding the ligand at 60 seconds. Internal validation was made using 0.1% Triton X-100 for total fluorophore release and 10 mM EGTA to chelate free calcium. Similarly, GPR109A specificity was internally validated using control cells devoid of GRP109A overexpression. Liver triglyceride measurement Liver triglycerides were measured from 20 mg of liver tissue using a variation of the Folch method, as described in Bai et al. (Bai et al., PARP-2 regulates SIRT1 expression and whole-body energy expenditure. (2011). Cell Metab 13, 450-460.
# C2C12 myotubes = test: Intracellular NAD+ content in C2C12 myotubes treated with PARP inhibitors; format: cell-based
# Protocol: Cell Culture, Transfection, Adenoviral Infection and Mitochondrial Characterization. HEK293T, MEF and C2C12 cells were cultured in DMEM (4.5 g/l glucose, 10% FCS). PARP-1^+/+ and PARP-1^−/− MEFs were prepared as described in (Menissier-de Murcia et al., 1997). SIRT1 and MEFs were kindly provided by Fred Alt (Chea et al., 2005). SIRT3 MER were established according to standard techniques from conditional SERT3^−/− mice. (Picard, F., Gehin, M., Annicotte, J., Rocchi, S., Champy, M. F., O'Malley, B. W., Chambon, P., and Auwerx, J. (2002). SRC-1 and TIF2 control energy balance between white and brown adipose tissues. Cell 111, 931-941.) Deletion of the SIRT3 gene was induced via infection with adenovirus encoding for the Cre recombinase. HEK293T cells were transfected using JetPei reagent (Polyplus Transfections, Illkirch, France) according to the manufacturer's instructions. C2C12 cells were differentiated in DMEM (4.5 g/L glucose, 2% horse serum) after reaching confluency for 2 days, followed by 2 days of PJ34 treatment (10 μM). PARP-1 shRNA constructs were described in (Shah et al., 2005). Human PARP-1 and siRNAs were obtained from Dharmacon (Thermo Scientific). The adenovirus encoding for FLAG-HA-PGC-1α, control and SIRT1 shRNAs were a kind gift from Pere Puigserver and were used (MOI=100) in C2C12 myotubes as described (Canto et al., 2009). Mitochondrial charge determination was performed as described (Bai et al., 2001) and DNA strand breaks were quantified by TUNEL assays according to the manufacturer's instructions (Millipore).
# NAD^+ NAM Determination. NAD^+ levels in cultured cells were determined using a commercial kit (Enzychrom™, BioAssays Systems, CA). For tissue samples NAD^+ and NAM levels were determined as described in (Sauve et al., 2005). In brief, to a weighed aliquot of frozen pulverized tissue we added as standards, ^18O-NAD^+ (typically 2.00 nmol) and ^18O-NAM (typically 2.00 nmol). 70 L of ice-cold 7% perchloric acid was then added and the sample was vortexed and sonicated three times, then centrifuged. Clear supernatant was removed and neutralized by additions of 3 M NaOH and 1 M phosphate buffer (pH=9), then centrifuged. Clear supernatant was injected onto HPLC C-18 column with 20 mM ammonium acetate eluent to separate NAD^+ and NAM from other cellular components, NAD^+ and NAM peaks (260 nm absorbance) were collected. Collections were lyophilized to dryness and subjected to MALDI-TOF analysis. For NAD^+ measurement, ratio of intensities for m/z=664 and 666 peaks, corresponding to ^16O- and ^18O-NAD^+ isotopomers, was multiplied by 2.00 nmol and then divided by tissue weight to determine NAD+ concentration in the sample. For NAM the ratio of intensities for m/z=123 and 125 peaks, corresponding to ^16O- and ^18O-NAM isotopomers, was multiplied by 2.00 nmol and then divided by tissue weight to determine NAM concentration in the sample. Corrections were applied for isotopic abundance. Other NAD metabolites were determined as previously described (Yang and Sauve, Synthesis of nictotinamide riboside and derivatives: effective agents for increasing nictinomide adenine dinucleotide concentrations in mammalian cells. J Med Chem 50, 6458-6461 (2006)).
smiles,measurement,setting,value
"NC(=O)c1cccnc1 [NAM, nicotinamide]",increase of worm lifespan,C. elegans [1]; FIG. 39B,18%
same,mean lifespan ± SE,"C. elegans [1]; N2, 200 nM",23.5 ± 1.03 days
same,variation compared to control (%),"C. elegans [1]; N2, 200 nM",+18.1%
same,mean lifespan ± SE,"C. elegans [1]; N2, 500 nM",22.6 ± 0.92 days
same,variation compared to control (%),"C. elegans [1]; N2, 500 nM",+13.5%
same,mean lifespan ± SE,"C. elegans [1]; N2, 1000 nM",21.8 ± 0.85 days
same,variation compared to control (%),"C. elegans [1]; N2, 1000 nM",+9.5%
same,lifespan in sir-2.1(ok434) mutant / sir-2.1 dependence,C. elegans [1]; sir-2.1(ok434) mutant worms,sir-2.1-dependent fashion
same,lifespan,C. elegans [1]; wild type N2 worms,extended lifespan
same,NAD+ levels in C. elegans,C. elegans [2],increased NAD+ levels
same,oxygen consumption (respiration),C. elegans [3],increased respiration; also recorded: Oxygen consumption was increased
same,"expression of genes of mitochondrial oxidative metabolism (cts-1, cox-4)",C. elegans [4]; day 3 of adulthood,trend for increased cts-1 expression
same,daf-16 expression,C. elegans [4]; in vivo,without affecting daf-16 mRNA levels; also recorded: daf-16 was unchanged
same,sod-3 expression,C. elegans [4]; in vivo,significantly higher sod-3 expression; also recorded: expression of sod-3 was increased
same,mitochondrial content in body wall muscle,C. elegans [5],increase muscle mitochondrial content; also recorded: increased mitochondrial content in body wall muscle
same,mitochondrial morphology in body wall muscle,C. elegans [5],affect mitochondrial morphology
"O=C(O)c1cccnc1 [NA, nicotinic acid, reference compound]",muscle NAD+ content,C57Bl/6J mice,significantly enhanced muscle NAD^+ content
"NC(=O)c1ccc[n+]([C@@H]2O[C@H](COP(=O)([O-])O)[C@@H](O)[C@H]2O)c1 [NMN, nicotinamide mononucleotide, reference compound]",GPR109A activation (calcium flux),GPR109A,did not activate GPR109A
same,NAD+ levels in liver,C57Bl/6J mice,increased NAD^+ levels in liver
same,muscle NAD+ content,C57Bl/6J mice,only NR and NA significantly enhanced muscle NAD^+ content
C[C@]1(c2nc3c(C(N)=O)cccc3[nH]2)CCCN1 [ABT-888],lifespan extension,C. elegans [1]; 100 nM (FIG. 34B),15%
same,mean lifespan ± SE,"C. elegans [1]; N2, 100 nM, listed as ABT",22.3 ± 1.01 days and 22.5 ± 1.05 days
same,mean lifespan ± SE,"C. elegans [1]; N2, 500 nM",22.1 ± 1.20 days
same,variation compared to control (%),"C. elegans [1]; N2, 500 nM",+13.9%
same,mean lifespan ± SE,"C. elegans [1]; N2, 1000 nM",20.0 ± 1.23 days
same,variation compared to control (%),"C. elegans [1]; N2, 1000 nM",+3.6%
O=C1N=C2SCC=C2c2ccccc21 [TIQ-A],intracellular NAD+ content upon PARP inhibition,C2C12 myotubes,confirmed the increase in NAD^+ content
